Values of other authors in US20190053509A1, “NITROUS OXIDE MIXTURES AND METHODS OF USE” (Korvata Inc., priority 2015, published 2019).
Read-outs that look alike come from different tables or passages of the source.

Columns and labels:
[1] = 101.3 kPa (1 atm); for Bunsen solubility coefficient in olive oil: olive oil at 22° C.; for Bunsen solubility coefficient in water: water at 0° C.
[2] = relative to nitrogen standardized to 1.0; from J Applied Physiology 1994; 76(1): 439-444

## [Xe] [Xe, xenon]
[1]
  Bunsen solubility coefficient in olive oil: 1.9 L gas/L
  Bunsen solubility coefficient in water: 0.1920 L gas/L

## O=O [Example O2, oxygen]
[1]
  Bunsen solubility coefficient in olive oil: 0.11 L gas/L
  Bunsen solubility coefficient in water: 0.0387 L gas/L

## [Kr] [Kr, krypton]
[2]
  RNP (Relative Narcotic Potency): 7.1
[1]
  Bunsen solubility coefficient in olive oil: 0.44 L gas/L
  Bunsen solubility coefficient in water: 0.0856 L gas/L

## [Ar] [Ar, argon]
[2]
  RNP (Relative Narcotic Potency): 2.3
[1]
  Bunsen solubility coefficient in olive oil: 0.15 L gas/L
  Bunsen solubility coefficient in water: 0.0421 L gas/L

## [N-]=[N+]=O [Example N2O, nitrous oxide]
25° C. and 36 psi
  lipid solubility: 7.08 g/L
25° C. and 181 psi
  lipid solubility: 23.14 g/L
[2]
  RNP (Relative Narcotic Potency): 39
[1]
  Bunsen solubility coefficient in olive oil: 3.6 L gas/L
  Bunsen solubility coefficient in water: 1.0710 L gas/L

## [He] [He, helium]
[2]
  RNP (Relative Narcotic Potency): 0.045
[1]
  Bunsen solubility coefficient in olive oil: 0.015 L gas/L
  Bunsen solubility coefficient in water: 0.0078 L gas/L

## [Ne] [Ne, neon]
[2]
  RNP (Relative Narcotic Potency): 0.3
[1]
  Bunsen solubility coefficient in olive oil: 0.052 L gas/L
  Bunsen solubility coefficient in water: 0.0101 L gas/L
